# Measurements published in EPA's ToxValDB 9.5.
# “And” between values parts separate entries of the source, which are not always exact repeats. Equal values may be shown once.
# Key:
# Mus musculus [1] = conditions: uterotrophic, injection, subcutaneous, Active
# Rattus norvegicus [2] = conditions: for LC50 / LD50: acute
# Oryctolagus sp. = conditions: for LD50: acute; for NOAEL: gavage
# Rattus norvegicus [3] = conditions: subchronic, oral, gavage, Fischer 344, Hematology: Plt increase + Blood Chemistry: BUN increase25 Bile acid increase + Absolute Organ Weight: Liver increase + Relative Organ …
# Rattus norvegicus [4] = conditions: oral, M/F
# Mus musculus [5] = conditions: for LD50: acute
# [6] = short-term, duration: 28 days, oral, diet, Sprague-Dawley
# [7] = subchronic, drinking water, impaired renal function and increased liver and kidney weight
# [8] = subchronic, duration: 12 weeks, Inhalation, Long-Evans
# [9] = reproduction developmental, mortality and kidney lesions
# [10] = reproduction developmental, duration: 2 weeks, inhalation, Sprague-Dawley
smiles,measurement,setting,value
CC[C@H](c1ccc(O)cc1)[C@@H](CC)c1ccc(O)cc1 [meso-Hexestrol],LEL,Mus musculus [1]; duration: 1 days,0.00914 mg/animal
same,LEL,Mus musculus [1]; duration: 1.2 days,0.00914 mg/animal
O=C(O)CCCCCCCCCCC(=O)O [Dodecanedioic acid],LC50,Rattus norvegicus [2]; Inhalation,> 4.3 µg/mL
same,LD50,Rattus norvegicus [2]; oral,> 3000 mg/kg
same,LD50,"Rattus norvegicus [2]; oral, gavage",> 17000 mg/kg
same,NOAEL,"Rattus norvegicus [2]; reproduction developmental, duration: 50 days, oral, gavage, CRL:CD BR",1000 mg/kg-day
same,LD50,"Oryctolagus sp.; dermal, occlusive",> 6000 mg/kg
CC(C)CCC(C)Nc1ccc(Nc2ccccc2)cc1 (configuration not stated) [N-(5-Methyl-2-hexyl)-N'-phenyl-p-phenylenediamine],LOAEL,Rattus norvegicus [2]; [6],750 ppm
same,NOAEL,Rattus norvegicus [2]; [6],500 ppm
same,LD50,"Oryctolagus sp.; dermal, occlusive, New Zealand",> 5010 mg/kg
CCOP(=S)(S)OCC [Diethyl dithiophosphoric acid],LC50,Rattus norvegicus [2]; inhalation,1640 mg/m3
same,LD50,Rattus norvegicus [2]; oral,4510 mg/kg
same,LD50,"Oryctolagus sp.; dermal, New Zealand",> 2000 mg/kg
CCCCCCCCCCCCCOC(=O)CCCCC(=O)OCCCCCCCCCCCCC [Bis(tridecyl) adipate],LC50,"Rattus norvegicus [2]; Inhalation, Sprague-Dawley",> 3.2 µg/mL
same,LD50,"Rattus norvegicus [2]; oral, Sherman Wistar",> 16000 mg/kg
same,LD50,"Rattus norvegicus [2]; oral, gavage, Wistar",> 15000 mg/kg
same,NOAEL,"Rattus norvegicus [2]; reproduction developmental, duration: 19 days, dermal, Sprague-Dawley",800 mg/kg-day
same,NOAEL,"Rattus norvegicus [2]; subchronic, duration: 13 weeks, dermal, Sprague-Dawley",800 mg/kg-day
same,LD50,Oryctolagus sp.; dermal,> 2000 mg/kg
same,LD50,"Oryctolagus sp.; dermal, semiocclusive, New Zealand",> 5000 mg/kg
O=[N+]([O-])c1ccc(Cl)cc1 [1-Chloro-4-nitrobenzene],LD50,"Rattus norvegicus [2]; oral, gavage, Sprague-Dawley",530 mg/kg
same,NOAEL,"Rattus norvegicus [2]; developmental, duration: 14 days, oral, gavage, Sprague-Dawley",15 mg/kg-day
same,NOAEL,"Rattus norvegicus [2]; reproduction developmental, duration: 14 days, oral, gavage, F, Sprague-Dawley",< 5 mg/kg-day
same,NOAEL,"Rattus norvegicus [2]; reproduction developmental, duration: 167 days, oral, gavage, Sprague-Dawley, generation: F0",0.7 mg/kg-day
same,NOAEL,"Rattus norvegicus [2]; reproduction developmental, duration: 167 days, oral, gavage, Sprague-Dawley, generation: F1",5 mg/kg-day
same,NOAEL,"Rattus norvegicus [2]; reproduction developmental, duration: 167 days, oral, gavage, Sprague-Dawley, generation: F2",5 mg/kg-day
same,NOAEL,"Oryctolagus sp.; developmental, duration: 13 hours, oral, New Zealand",15 mg/kg-day
"CC(C)CC(=O)CC(C)CC(C)C (configuration not stated) [2,6,8-Trimethyl-4-nonanone]",LD50,"Rattus norvegicus [2]; oral, gavage",8470 mg/kg
same,NOAEL,"Rattus norvegicus [2]; reproduction developmental, oral, gavage, CD, generation: F1",300 mg/kg-day
same,NOAEL,"Rattus norvegicus [2]; reproduction developmental, oral, gavage, F, CD",100 mg/kg-day
same,LD50,"Oryctolagus sp.; dermal, occlusive",9030 mg/kg
CCCCCCCCCc1cc2ccccc2c(S(=O)(=O)[O-])c1CCCCCCCCC.CCCCCCCCCc1cc2ccccc2c(S(=O)(=O)[O-])c1CCCCCCCCC.[Ca+2] [Calcium bis(dinonylnaphthalenesulphonate)],LC50,"Rattus norvegicus [2]; Inhalation, Wistar",> 18 µg/mL
same,LD50,"Rattus norvegicus [2]; oral, gavage, Sprague-Dawley",> 5000 mg/kg
same,LD50,"Oryctolagus sp.; dermal, New Zealand",> 20000 mg/kg
C=CCO [Allyl alcohol],NOEL,Rattus norvegicus [3]; F,1.5 mg/kg-day
same,NOEL,Rattus norvegicus [3]; M,3 mg/kg-day
same,LOAEL,Rattus norvegicus [4]; [7],6.9 mg/kg-day
same,NOEL,Rattus norvegicus [4]; [7],4.8 mg/kg-day
same,LD50,"Mus musculus [5]; oral, gavage, Swiss-Webster",96 mg/kg
same,LC50,"Rattus norvegicus [2]; inhalation, Long-Evans",≥ 297 mg/m3 and ≤ 333 mg/m3
same,LC50,"Rattus norvegicus [2]; inhalation, Sherman Wistar",594 mg/m3
same,LD50,"Rattus norvegicus [2]; oral, Sherman Wistar",64 mg/kg
same,LD50,"Rattus norvegicus [2]; oral, gavage, Long-Evans",≥ 99 mg/kg and ≤ 105 mg/kg
same,LD50,"Rattus norvegicus [2]; oral, gavage, Osborne-Mendel",70 mg/kg
same,NOAEL,"Rattus norvegicus [2]; chronic, duration: 15 weeks, oral, drinking water, Wistar",11.2 mg/kg-day
same,LOAEL,Rattus norvegicus [2]; [8],95 mg/m3
same,NOAEL,Rattus norvegicus [2]; [8],47.5 mg/m3
same,LD50,Oryctolagus sp.; dermal,89 mg/kg
O=C([O-])c1cc(Oc2ccc(C(F)(F)F)cc2Cl)ccc1[N+](=O)[O-].[Na+] [Acifluorfen sodium],LEL,Rattus norvegicus [4]; [9],25 mg/kg-day
same,NOEL,Rattus norvegicus [4]; [9],1.25 mg/kg-day
same,LC50,"Rattus norvegicus [2]; Inhalation, albino King (Kng:(SD)BR)",> 1.38 µg/mL
same,LD50,"Rattus norvegicus [2]; oral, CF Nelson",122 mg/kg
same,NOAEL,"Rattus norvegicus [2]; developmental, duration: 14 days, oral, gavage, Crl:COBS-CD-(SD)BR",20 mg/kg-day
same,LD50,"Oryctolagus sp.; dermal, occlusive, Albino",1460 mg/kg
same,NOAEL,"Oryctolagus sp.; developmental, duration: 24 days, oral, New Zealand",12 mg/kg-day
same,NOAEL,"Oryctolagus sp.; reproduction developmental, duration: 24 days, oral, F, New Zealand",12 mg/kg-day
"Cc1ccc(N(C)C)cc1 [N,N,4-Trimethylaniline]",LC50,"Rattus norvegicus [2]; inhalation, Sprague-Dawley",1.4 µg/mL
same,LD50,"Rattus norvegicus [2]; oral, Sprague-Dawley",1650 mg/kg
same,LD50,"Oryctolagus sp.; dermal, New Zealand",> 2000 mg/kg
CCC(C)OP(=S)([S-])OC(C)CC(C)C.CCC(C)OP(=S)([S-])OC(C)CC(C)C.[Zn+2] (configuration not stated),LD50,"Rattus norvegicus [2]; oral, gavage, Sprague-Dawley",≥ 2900 mg/kg and ≤ 3400 mg/kg
same,LD50,"Oryctolagus sp.; dermal, New Zealand",> 5000 mg/kg
"c1ccc2sc(SSc3nc4ccccc4s3)nc2c1 [2,2'-Dithiobisbenzothiazole]",LD50,"Mus musculus [5]; injection, Intraperitoneal",2250 mg/kg
same,LD50,"Mus musculus [5]; injection, intravenous",180 mg/kg
same,NOAEL,"Mus musculus [5]; developmental, oral, N strain",10 mg/kg-day
same,LD50,"Rattus norvegicus [2]; injection, Intraperitoneal",3000 mg/kg and 2600 mg/kg
same,NOAEL (% diet),"Rattus norvegicus [2]; developmental, duration: 22 days, oral, diet, Wistar",1
same,NOAEL (% diet),"Rattus norvegicus [2]; reproduction developmental, duration: 22 days, oral, diet, F, Wistar",0.2
same,NOAEL,"Rattus norvegicus [2]; reproduction developmental, oral, Wistar, hybrid, generation: F1",10 mg/kg-day
same,NOAEL,"Rattus norvegicus [2]; short-term, duration: 22 days, oral, diet, F, Wistar",127 mg/kg-day
same,LD50,Oryctolagus sp.; oral,6200 mg/kg
CCCCOC(=O)CC [Butyl propionate],LD50,"Rattus norvegicus [2]; dermal, occlusive, Fischer 344",> 2000 mg/kg
same,LD50,"Rattus norvegicus [2]; oral, gavage, Fischer 344",> 5000 mg/kg
same,LC50,"Rattus norvegicus [2]; oral, gavage, Sprague-Dawley",12300 mg/kg
same,LD50,"Rattus norvegicus [2]; oral, gavage, Sprague-Dawley",11000 mg/kg
same,LD50,"Rattus norvegicus [2]; oral, gavage, Wistar",> 14000 mg/kg
same,NOAEL,"Rattus norvegicus [2]; developmental, duration: 10 days, inhalation, Sprague-Dawley",≥ 10600 mg/m3
same,LOAEL,Rattus norvegicus [2]; [10],13300 mg/m3
same,NOAEL,Rattus norvegicus [2]; [10],2660 mg/m3
same,LOAEL,"Rattus norvegicus [2]; reproduction developmental, duration: 13 weeks, inhalation, Sprague-Dawley",3990 mg/m3
same,LOAEL,"Rattus norvegicus [2]; short-term, duration: 11 days, inhalation, Fischer 344",4260 mg/m3
same,LD50,"Oryctolagus sp.; dermal, occlusive, New Zealand",> 14000 mg/kg
same,LD50,"Oryctolagus sp.; dermal, occlusive, albino",> 14000 mg/kg
